From paper PMC8155809 (The Journal of General Physiology, 2021)

Tests used:
WT TREK-2 = biological target: T1, WT TREK-2 (Homo sapiens, UniProt P57789); experiment: Single-channel recordings of WT TREK-2 in excised patches from HEK293 cells; format: cell-based
T1 construct: full-length WT TREK-2 channels, we examined its effects on the mean open time of TREK-2 channels expressed in HEK293 cells; expressed in transfected cells; host or cells: HEK293 cells, transient transfection with pcDNA3
T1 sequence (P57789 1-543 isoform P57789-4): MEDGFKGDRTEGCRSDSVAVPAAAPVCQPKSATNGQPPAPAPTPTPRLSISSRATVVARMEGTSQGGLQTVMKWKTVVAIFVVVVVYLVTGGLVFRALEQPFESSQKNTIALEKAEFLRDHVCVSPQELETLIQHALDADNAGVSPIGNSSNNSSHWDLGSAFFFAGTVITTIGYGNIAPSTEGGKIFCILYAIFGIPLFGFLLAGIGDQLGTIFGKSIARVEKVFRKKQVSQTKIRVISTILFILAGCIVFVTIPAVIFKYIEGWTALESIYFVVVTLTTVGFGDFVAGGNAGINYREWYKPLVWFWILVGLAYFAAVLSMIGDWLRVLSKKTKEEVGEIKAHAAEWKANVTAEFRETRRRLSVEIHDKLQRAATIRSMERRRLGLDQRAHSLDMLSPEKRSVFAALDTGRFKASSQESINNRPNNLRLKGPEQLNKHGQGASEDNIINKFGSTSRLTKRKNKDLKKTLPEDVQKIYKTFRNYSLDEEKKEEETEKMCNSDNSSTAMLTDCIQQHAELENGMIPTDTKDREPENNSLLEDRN
Protocol: (§1) Full-length human TREK-2 isoform 3 (NCBI accession no. NP_612191) was used throughout this study and was subcloned into the pFAW vector for expression in oocytes. The truncated construct used to generate protein (TREK-2ΔN/ΔC) is identical to that used previously to obtain crystal structures ([Dong et al., 2015]); it contains a deletion of 71 residues at the N terminus and 213 residues at the C terminus. […] Desamino chloro-fluoxetine (Toronto Research Chemicals) was dissolved in chloroform and diluted to working concentrations on the day of experimenting (maximum final concentration was 0.01%).
HEK293 cells were cultured in DMEM (Sigma) containing 10% FBS (Life Technologies), 3 mM glucose, and 2 mM glutamine at 37°C in a humidified atmosphere of 5% CO2/[…] at 37°C. Cells were transiently transfected with 0.2 µg channel pcDNA3 per dish using FuGENE 6 according to the manufacturer’s instructions. Cells were used 1–2 d after transfection.
(§2) For currents recorded in Xenopus laevis oocytes, giant-patch electrodes were pulled from thick-walled borosilicate glass and polished to give pipette resistances of ∼0.3–0.5 MΩ when filled with patch solution. Pipette solution contained (in mM) 116 NMDG, 4 KCl, 1 MgCl2, 3.6 CaCl2, and 10 HEPES (pH 7.4), while the bath solution contained (in mM) 120 KCl, 1 NaCl, 2 EGTA, and 10 HEPES (pH 7.3). Patches were perfused via a gravity-flow perfusion system and a HEKA EPC 10 USB single computer–controlled amplifier was used and currents recorded using a Patchmaster v2 × 90.5 (HEKA Electronics), filtered at 1 kHz, and sampled at 10 kHz. For currents recorded in HEK293 cells, patch electrodes were pulled from thick-walled borosilicate glass and polished to give pipette resistances of ∼3–5 MΩ when filled with patch solution. The currents were recorded from excised patches with both intracellular and extracellular solution containing 200 mM KCl and 10 mM HEPES (pH 6.0 with KOH). Patches were perfused via a gravity-flow perfusion system. Data were acquired with pClamp and recorded using an Axopatch 200B (Molecular Devices), filtered at 5 kHz, and sampled at 200 kHz. Single-channel currents were analyzed in an identical manner to those obtained from bilayers (see above).

human TREK-2 = biological target: T2, human TREK-2 (Homo sapiens, UniProt P57789); experiment: Macroscopic TREK-2 currents in giant excised patches from Xenopus oocytes; format: cell-based
T2 construct: expressed in transfected cells; host or cells: Xenopus laevis oocytes injected with in vitro transcribed mRNA (pFAW vector)
T2 sequence (P57789 1-543 isoform P57789-4): T1 sequence (P57789 1-543 isoform P57789-4)
Protocol: as §1
Oocytes were prepared for injection of mRNA by collagenase digestion followed by manual defolliculation and stored in ND96 solution that contained (in mM) 96 NaCl, 2 KCl, 1.8 CaCl2, 1 MgCl2, and 10 HEPES (pH 7.4) and was supplemented with 2.5 mM sodium pyruvate 50 µg/ml gentamycin, 50 µg/ml tetracycline, 50 µg/ml ciprofloxacin, and 100 µg/ml amikacin. Cells were injected with 1–4 ng mRNA up to 4 d after isolation. In vitro transcription of mRNA was done using the Amplicap SP6 Kit (Cambio). Experiments were performed 12–24 h after injection at room temperature (22°C unless otherwise indicated). For measurement and comparison of basal whole-cell currents, oocytes were injected with 4 ng RNA and recorded exactly 24 h after injection.
as §2
The macroscopic concentration–inhibition relationships in Figs. 1 and 2 were fitted with a modified Hill equation:
I/I0=a+1−a/1+([X]/IC50)^h, (1) where I and IO are the currents in the presence and absence of inhibitor, respectively, [X] is the concentration of inhibitor, IC50 is the inhibitor concentration at which the inhibition is half maximal, h is the Hill coefficient, and a is the fraction of unblockable current; a = 0, except where indicated in the legend to Fig. 1.
The macroscopic concentration–activation relationships in Fig. 1 E were fitted with a modified Hill equation: I/I0=a+(1−a)([X]/IC50)^h/1+([X]/IC50)^h, (2) where I and IO are the currents in the presence and absence of agonist, respectively, [X] is the concentration of agonist, IC50 is the agonist concentration at which the activation is half maximal, h is the Hill coefficient, and a is the fraction of initial current.

With `CS(=O)(=O)Nc1ccc(C(=O)NCc2ccc(Cl)cc2Cl)cc1` [ML335] the “mean Po” value (WT TREK-2; 100 µM ML335, absence of NFx, −40 mV) was 0.69 ± 0.2.

In the case of `FC(F)(F)c1ccc(O[C@@H](CCCl)c2ccccc2)cc1` [desamino chloro-fluoxetine, Desamino chloro-fluoxetine], the “PO (single-channel open probability)” value (WT TREK-2; 10 µM, −40 mV) is reported as 0.04, the “reduction in γ (single-channel current amplitude)” value (WT TREK-2; 10 µM, −40 mV (Fig. 6B)) is reported as 15 ± 5% and the “reduction of channel Po” value (WT TREK-2; 10 µM, −40 mV (Fig. 6B)) is reported as 75 ± 0.05%.

In the case of `c1ccc(-c2nn[nH]n2)c(Nc2cccc3c2CCCC3)c1` [BL1249], the “h (Hill coefficient), BL1249 activation” value (human TREK-2; BL1249 on its own) is reported as 1.9 and the “h (Hill coefficient), BL1249 activation” value (human TREK-2; in the presence of NFx) is reported as 1.4.
